Source: article PMC11402852, “Genotoxicity of selected cannabinoids in human lymphoblastoid TK6 cells” (Archives of Toxicology, 2024)

Tested on: TK6 cells
Experiment: Mitotic disturbance assay
Type: cell-based, human
Conditions: 6 h, without S9; CBG 30 µM, CBD 15 µM, CBC 15 µM, CBDV 40 µM, CBN 15 µM; vs solvent control
Protocol: The cells were treated for 6 h with CBG 30 µM, CBD 15 µM, CBC 15 µM, CBDV 40 µM, and CBN 15 µM. The positive control was vincristine sulphate 0.0121 µM, and the solvent control was DMSO. For the experiments with or without the S9 mix (final concentration 0.25%), TK6 cells were treated with either CBDV 40 µM or vincristine sulphate 10 ng/mL for 6 h. DMSO with or without S9 mix was used as control. Further procedure was as described for micronucleus experiments, except with direct harvest after cannabinoid treatment without the incubation period with cytochalasin B. Two slides were evaluated with a Nikon Eclipse 55i fluorescent microscope for each experimental condition. The independent experiments were conducted three times.
The cells were counted in categories apoptosis, interphase, prophase, metaphase, anaphase-telophase, disturbed metaphase, and disturbed anaphase-telophase in 1000 cells. The mitotic index was calculated as a sum of the number of cells in prophase, metaphase, anaphase-telophase, disturbed metaphase, and disturbed anaphase-telophase in 1000 cells. Disturbed metaphase and disturbed anaphase-telophase were defined as deviating from the usual appearance of mitoses. Disturbed mitoses were assessed in 100 mitotic cells per slide.

## C=C(C)[C@@H]1CCC(C)=C[C@H]1c1c(O)cc(CCCCC)cc1O [CBD, cannabidiol]
  Mitotic index: significantly decreased the mitotic index
